Laboratory results from patent US12496329B2, “Methods of using and compositions including an incretin analog” (Eli Lilly and Company, priority 2021, dated 2025).
Marks after values point to notes of the source that are not given here.

Test: MAD study in individuals with diabetes: pharmacodynamics (OGTT, glucose, HbA1c, body weight, appetite VAS)
Assay type: in vivo, human
Parameters: OGIS Index, change from baseline / Disposition Index, change from baseline: unit not given here
Details: for Disposition Index, change from baseline / HOMA2-B, change from baseline / HOMA2-IR, change from baseline / Insulin Sensitivity Matsuda Index, change from baseline / Insulinogenic Index, change from baseline / OGIS Index, change from baseline / OGTT C-peptide AUC (0-2 hr), change from baseline / OGTT GCG AUC (0-2 hr), change from baseline / OGTT glucose AUC (0-2 hr), change from baseline / OGTT insulin AUC (0-2 hr), change from baseline / Daily mean plasma glucose, change from baseline / HbA1c, change from baseline: 1.5 mg Dula
Description: Studies are designed to evaluate the safety, tolerability, PD and PK of the GGG tri-receptor agonist (SEQ ID NO:1) in individuals with diabetes. The MAD study is a randomized, investigator- and participant-blind, placebo-controlled, multiple-ascending dose, single-site study conducted in individuals with diabetes (i.e., females or males aged 20-70 years, inclusive, with T2DM for at least 3 months and HbA1c at lead-in and screening of ≥7.0% and ≤10.5% and treated with diet and exercise alone or a stable dose of metformin for at least 3 months prior to screening, with stable body weight for 3 months prior to randomization and with a BMI of 23-50 kg/m^2 at screening).
Dose escalation of the GGG tri-receptor agonist is assessed over 12 weeks in cohorts with a starting dose of 0.5 mg. One cohort of 13 individuals is administered 0.5 mg for 12 weeks. A second cohort of 13 individuals is administered 1.5 mg for 12 weeks. A third cohort of 15 individuals is administered 3.0 mg for 12 weeks. A fourth cohort of 15 individuals is administered 3.0 mg for 4 weeks and then administered 6.0 mg for 8 weeks. A fifth cohort of 16 individuals is administered 3.0 mg for 2 weeks, administered 6.0 mg for 2 weeks, administered 9.0 mg for 4 weeks, and then administered 12 mg for 4 weeks. Alternate dose increment steps may be introduced based on emerging safety and tolerability data from the preceding cohorts, and the dose increment steps can be reduced. As a non-limiting example, in Cohort 4, escalation from starting dose of 3 mg may occur via a step-through dose of 4.5 mg before attaining 6 mg, in Cohort 5, escalation from starting dose of 3 to 12 mg may occur via an additional step through dose level of 4.5 mg, prior to the planned doses 6 and 9 mg. In addition to these proposed alternate regimens in Cohort 4 and Cohort 5, planned dose for escalation between cohorts and within cohorts may be further reduced if warranted by safety or tolerability data.
C-peptide, glucagon, glucose and insulin are measured for an oral glucose tolerance test (OGTT) during the study using methods known in the art for each of the analytes. In addition, HbA1c is measured at Days 1, 29, 57, 78 and 85, as well as at Week 16. The following parameters are derived from the OGTT to assess insulin resistance and β cell function: Homeostatic model assessment (HOMA)-B, HOMA-IR, insulinogenic index, insulin sensitivity (Matsuda Index) and oral glucose insulin sensitivity (OGIS).
Insulin sensitivity is calculated as per the below equation: […]
Insulin sensitivity (Matsuda Index) is calculated as per the below equation: […]
Disposition index is calculated as (IGI*ISI).
OGIS is calculated as per the below equation: […]
Satiety VAS is measured after fasting on Days 1, 8, 15, 22, 29, 36, 43, 50, 57, 64, 71, 78 and 80, as well as at Week 16. Appetite sensations are assessed using a VAS for parameters of hunger, fullness, satiety and prospective food intake, and an overall appetite score is calculated as described above in the SAD study.

[1] = 1.5 mg dulaglutide, 12-week treatment

Q: What does the source list for dulaglutide?
A: Disposition Index, change from baseline (Day 2): 0.0812; HOMA2-B, change from baseline (Day 2): 31.2; HOMA2-IR, change from baseline (Day 2): 0.360; Insulin Sensitivity Matsuda Index, change from baseline (Day 2): −0.0208; Insulinogenic Index, change from baseline (Day 2): 0.119; OGIS Index, change from baseline (Day 2): 23.5; OGTT C-peptide AUC (0-2 hr), change from baseline (Day 2): 879 pmol·h/L; OGTT GCG AUC (0-2 hr), change from baseline (Day 2): -1.21 pmol·h/L; OGTT glucose AUC (0-2 hr), change from baseline (Day 2): -9.10 mmol·h/L; OGTT insulin AUC (0-2 hr), change from baseline (Day 2): 322 pmol·h/L; Daily mean plasma glucose, change from baseline (Day 3): −2.60* mmol/L; HbA1c, change from baseline (Day 29): −0.646%; Disposition Index, change from baseline (Day 30): 0.0866; HOMA2-B, change from baseline (Day 30): 42.2; HOMA2-IR, change from baseline (Day 30): 0.480; Insulin Sensitivity Matsuda Index, change from baseline (Day 30): −0.476; Insulinogenic Index, change from baseline (Day 30): 0.130; OGIS Index, change from baseline (Day 30): 19.4; OGTT C-peptide AUC (0-2 hr), change from baseline (Day 30): 1350 pmol·h/L; OGTT GCG AUC (0-2 hr), change from baseline (Day 30): -4.52 pmol·h/L; OGTT glucose AUC (0-2 hr), change from baseline (Day 30): -10.6 mmol·h/L; OGTT insulin AUC (0-2 hr), change from baseline (Day 30): 519 pmol·h/L; Daily mean plasma glucose, change from baseline (Day 31): −3.89* mmol/L; HbA1c, change from baseline (Day 57): −0.997%; Daily mean plasma glucose, change from baseline (Day 59): −3.21* mmol/L; HbA1c, change from baseline (Day 78): −1.07%; Disposition Index, change from baseline (Day 79): 0.0481; HOMA2-B, change from baseline (Day 79): 25.9; HOMA2-IR, change from baseline (Day 79): 0.600; Insulin Sensitivity Matsuda Index, change from baseline (Day 79): −1.14; Insulinogenic Index, change from baseline (Day 79): 0.105; OGIS Index, change from baseline (Day 79): 38.1; OGTT C-peptide AUC (0-2 hr), change from baseline (Day 79): 354 pmol·h/L; OGTT GCG AUC (0-2 hr), change from baseline (Day 79): -1.28 pmol·h/L; OGTT glucose AUC (0-2 hr), change from baseline (Day 79): -8.44 mmol·h/L; OGTT insulin AUC (0-2 hr), change from baseline (Day 79): 188 pmol·h/L; Daily mean plasma glucose, change from baseline (Day 80): −3.73* mmol/L; HbA1c, change from baseline (Day 85): −0.960%; HbA1c, change from baseline (Day 106): −0.538%; fullness scores [1]: increase from baseline; hunger scores [1]: decrease from baseline; prospective food consumption scores [1]: greatest decreases from baseline; satiety scores [1]: increase from baseline; maximum decrease from baseline in mean body weight (1.5 mg, 12-weeks treatment): 1.3 kg; decrease from baseline in mean waist circumference (1.5 mg, Day 85): 4.9 cm
